Results reported in patent publication US7026339B2, “Inhibitors of HCV NS5B polymerase” (priority 2003, dated 2006).
pIC50: −log10 of the molar value.

Tested on: HuH-7 replicon cells 5–15 and 9–13 (HCV replication)
Experiment: Inhibition of viral replication in HuH-7 replicon cells (HCV RNA / GAPDH RNA by multiplex RT-PCR)
Assay type: cell-based
Conditions: Hepatitis C virus, 72 h; inhibiting 50% of replication; HuH-7 replicon cells, 3 days; read-out: IC50
In short: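 HCV and GAPDH RNA were measured by multiplex TaqMan RT-PCR (HCV 5′ untranslated region) after 3-day compound treatment at 37 °C, final 100 μM–1 μM in 1% DMSO. Cells were plated 24 h beforehand at 7×10^3/well. Read-out: HCV-to-GAPDH ratio expressed as percent control versus untreated cells.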

SMILES | pIC50
CN(c1ccccc1/C=N/NC(=O)c1cc(Cl)ccc1Cl)S(=O)(=O)c1ccc(C(F)(F)F)cc1 [Compound 240, N-(2-{(E)-[(2,5-dichlorobenzoyl)hydrazono]methyl}phenyl)-N-methyl-4-(trifluoromethyl)benzenesulfonamide] | 6.00
O=C(Cc1cccc(Br)c1)N/N=C/c1ccccc1NS(=O)(=O)c1ccc(C(F)(F)F)cc1 [Compound 241, N-[2-((E)-{[(3-bromophenyl)acetyl]hydrazono}methyl)-phenyl]-4-(trifluoromethyl)benzenesulfonamide] | < 4.30
O=C(Cc1cccc(Cl)c1)N/N=C/c1ccccc1NS(=O)(=O)c1ccc(C(F)(F)F)cc1 [Compound 242, N-[2-((E)-{[(3-chlorophenyl)acetyl]hydrazono}methyl)-phenyl]-4-(trifluoromethyl)benzenesulfonamide] | < 4.30
CN(c1ccccc1/C=N/NC(=O)Cc1ccccc1)S(=O)(=O)c1ccc(C(F)(F)F)cc1 [Compound 243, N-methyl-N-(2-{(E)-[(phenylacetyl)hydrazono]methyl}phenyl)-4-(trifluoromethyl)benzenesulfonamide] | > 5.30
CN(c1ccccc1/C=N/NC(=O)Cc1cccc(Cl)c1)S(=O)(=O)c1ccc(C(F)(F)F)cc1 [Compound 244, N-[2-((E)-{[(3-chlorophenyl)acetyl]hydrazono}methyl)-phenyl]-N-methyl-4-(trifluoromethyl)benzenesulfonamide] | > 5.30
CN(c1ccccc1/C=N/NC(=O)Cc1cccc(Br)c1)S(=O)(=O)c1ccc(C(F)(F)F)cc1 [Compound 245, N-[2-((E)-{[(3-bromophenyl)acetyl]hydrazono}methyl)-phenyl]-N-methyl-4-(trifluoromethyl)benzenesulfonamide] | > 5.30
COc1ccc(CC(=O)N/N=C/c2ccccc2N(C)S(=O)(=O)c2ccc(C(F)(F)F)cc2)cc1OC [Compound 246, N-[2-((E)-{[(3,4-dimethoxyphenyl)acetyl]hydrazono}methyl)-phenyl]-N-methyl-4-(trifluoromethyl)benzenesuIfonamide] | > 5.30
CN(c1ccccc1/C=N/NC(=O)Cc1cccnc1)S(=O)(=O)c1ccc(C(F)(F)F)cc1 [Compound 247, N-methyl-N-(2-{(E)-[(pyridin-3-ylacetyl)hydrazono]methyl}phenyl)-4-(trifluoromethyl)benzenesulfonamide] | > 5.30
CN(c1ccccc1/C=N/NC(=O)Cc1ccc2c(c1)OCO2)S(=O)(=O)c1ccc(C(F)(F)F)cc1 [Compound 248, N-(2-{(E)-[(1,3-benzodioxol-5-ylacetyl)hydrazono]methyl}phenyl)-N-methyl-4-(trifluoromethyl)benzenesulfonamide] | > 5.30
CN(c1ccccc1/C=N/NC(=O)Cc1c[nH]cn1)S(=O)(=O)c1ccc(C(F)(F)F)cc1 [Compound 249, N-(2-{(E)-[(1H-imidazol-4-ylacetyl)hydrazono]methyl}phenyl)-N-methyl-4-(trifluoromethyl)benzenesulfonamide] | > 5.30
O=S(=O)(Cc1cccc(Cl)c1)N/N=C/c1ccccc1OS(=O)(=O)c1ccc(C(F)(F)F)cc1 [Compound 250, 2-((E)-[2-[(3-chlorobenzyl)sulfonyl]hydrazono}methyl)-phenyl 4-(trifluoromethyl)benzenesulfonate] | 4.30 to 5.30
O=S(=O)(Cc1ccccc1)N/N=C/c1ccccc1OS(=O)(=O)c1ccc(C(F)(F)F)cc1 [Compound 251, 2-{(E)-[2-(benzylsulfonyl)hydrazono]methyl}phenyl4-(trifluoromethyl)benzenesulfonate] | 4.30 to 5.30
O=S(=O)(Cc1ccc(C(F)(F)F)cc1)N/N=C/c1ccccc1OS(=O)(=O)c1ccc(C(F)(F)F)cc1 [Compound 252, 2-[(E)-(2-{[4-(trifluoromethyl)benzyl]sulfonyl}hydrazono)-methyl]phenyl 4-(trifluoromethyl)benzenesulfonate] | 4.30 to 5.30
O=C(Cc1ccc2c(c1)OCO2)NC1CC1c1ccccc1OS(=O)(=O)c1ccc(C(F)(F)F)cc1 (centres unmarked) [Compound 253, 2-(2-{[2-(1,3-benzodioxol-5-yl)acetyl]amino}cyclopropyl)phenyl 4-(trifluoromethyl)benzenesulfonate] | < 4.30
O=C(NCc1ccccn1)Nc1ccccc1OS(=O)(=O)c1ccc(C(F)(F)F)cc1 [Compound 254, 2-({[(pyridin-2-ylmethyl)amino]carbonyl}amino)phenyl 4-(trifluoromethyl)benzenesulfonate] | < 4.30
O=S(=O)(N/N=C/c1ccccc1OS(=O)(=O)c1ccc(C(F)(F)F)cc1)c1ccccc1 [Compound 255, 2-{(E)-[2-(phenylsulfonyl)hydrazono]methyl}phenyl4-(trifluoromethyl)benzenesulfonate] | 4.30 to 5.30
O=S(=O)(N/N=C/c1ccccc1OS(=O)(=O)c1ccc(C(F)(F)F)cc1)c1cccc2ccccc12 [Compound 256, 2-{(E)-[2-(1-naphthylsulfonyl)hydrazono]methyl}phenyl4-(trifluoromethyl)benzenesulfonate] | 4.30 to 5.30
